The results in this text go back to patent US5294633A, “Imidazolyl-propenoic acid derivatives” (Bayer Aktiengesellschaft, priority 1991, dated 1994).

SMILES strings stand for the structures. In brackets after ≈: the same amount, converted by molar mass.

The assay deals with isolated rabbit aorta (contractions induced by angiotensin II). Put plainly: Inhibition of the contraction induced with angiotensin II in isolated rabbit aorta rings. The note with it: Oryctolagus cuniculus; isolated aorta rings of rabbits in vitro; effect at 3rd = submaximal agonist concentration; read-out: IC50 (g/ml) with respect to contractions induced by AII. As for the experimental part: Rabbits of both sexes are anaesthetized by a blow to the neck and bled out, or alternatively anaesthetized with Nembutal (about 60-80 mg/kg i.v.) and sacrificed by opening the thorax. The thorax aorta is taken out, freed from adhering connective tissue, divided into 1. 5 Mm wide ring segments and these are individually transferred under an initial loading of about 3.5 g to 10 ml organ baths containing 95% O2 /5% CO2 -aerated Krebs-Henseleit nutrient solution thermostated at 37° C. and of the following composition: 119 mmol/l NaCl; 2.5 mmol/l CaCl2 ×2H2 O; 1.2 mmol/l KH2 PO4; 10 mmol/l glucose; 4.8 mmol/l KCl; 1.4 mmol/l MgSO4 ×7 H2 O and 25 mmol/l NaHCO3.
The contractions are detected isometrically by Statham UC2 cells by means of a bridge amplifier (ifd Mulheim or DSM Aalen) and digitized and evaluated by means of an A/D converter (System 570, Keithley, Munich). The agonist dose-response curves (DRC) are carried out hourly. With each DRC, 3 or 4 individual concentrations are applied to the baths at 4 min intervals. […]
The height of, in the normal case, the 3rd DRC is used as a reference quantity for the assessment of the test substance to be investigated in further passages, which test substance is applied to the baths in increasing dose in each case at the start of the incubation time in the following DRCs. […]

With `CCCCc1nc(Cl)c(/C=C/C(=O)OCC)n1Cc1ccc(-c2ccccc2-c2nnn[nH]2)cc1` [Example 1, Ethyl (E)-3-[2-n-butyl-4-chloro-1-{(2'-(tetrazol-5-yl)biphenyl-4-yl)methyl}-1H-imidazol-5-yl]-2-propenoate], the IC50 was 0.025 µg/mL (≈ 0.0509 µM).

For the compound `CCCCc1nc(Cl)c(/C=C/C(=O)O)n1Cc1ccc(-c2ccccc2-c2nnn[nH]2)cc1` [Example 2, (E)-3-[2-n-Butyl-4-chloro-1-{(2'-(tetrazol-5-yl)biphenyl-4-yl)methyl}-1H-imidazol-5-yl]-2-propenoic acid], the IC50 was determined as 0.021 µg/mL (≈ 0.0454 µM).
